# Experimental data as given in patent publication US20240325319A1, “INHIBITORS OF AMYLOID BETA OLIGOMERIZATION AND THERAPEUTIC USES THEREOF” (Northwestern University, priority 2021, published 2024).
# Entries after “also recorded” stand apart in the source; their conditions may differ. Where a SMILES comes first, the peptide text is derived from it. The star is where a group is joined. Cbz = O=C(OCc1ccccc1)*
# Tests used:
# cathepsin L = cathepsin L (Homo sapiens, UniProt P07711); test: Purified cathepsin L enzyme activity (Z-FR-AMC to 7-AMC); format: biochemical; conditions: same concentration range (0.0003-150 μM)
# Procedure: FIG. 26. A) 0.0003-150 μM NU-9 was combined with purified cathepsin L enzyme in the presence of the cathepsin L substrate Z-FR-AMC. Cathepsin L enzyme activity was measured by the rate of 7-AMC production by fluorescence. Percent change in rate was quantified in the graph. […] B) Mature hippocampal neurons were treated with NU-9 for 30 minutes, then Magic Red was used to monitor intracellular cathepsin L activity. Cells were treated in 3 wells, and 9-22 images were analyzed per condition.
# No effect of 0.0003-150 μM NU-9 was observed on the cathepsin L activity as measured by the production rate of 7-AMC from Z-FR-AMC by purified cathepsin L enzyme.
# AβOs bound to neurons = test: AβOs bound to dendrites of hippocampal neurons treated with Aβ42 monomer (immunofluorescence, NU2/NU4); format: cell-based, rat; conditions: for AβO accumulation under cathepsin L inhibition: 10 μM cathepsin L inhibitor 1 h, 500 nM Aβ 30 min; for influence of lysosome acidification inhibitor on the effect of NU-9: Bafilomycin A 100 nM, 30 min prior to 3 μM NU-9, then 500 nM Aβ monomer 30 min
# acidic lysosomes = test: Lysotracker labelling of acidic compartments in hippocampal neurons; format: cell-based, rat; conditions: addition of control Bafilomycin A
# Procedure: FIG. 24. Mature E18 hippocampal neurons were treated 3 μM NU-9, and subsequently labelled with lysotracker. A) total immunofluorescence (integrated density), B) mean intensity, C) average size of acidic compartments, D) number of acidic compartments.
# cathepsin B = cathepsin B (Homo sapiens, UniProt P07858); test: Purified cathepsin B enzyme activity (Z-RR-AMC to 7-AMC); format: biochemical; conditions: same concentration range (0.0003-30 μM)
# Procedure: FIG. 28. A) 0.0003-30 μM NU-9 was combined with purified cathepsin B enzyme in the presence of the cathepsin B substrate Z-RR-AMC. Cathepsin B enzyme activity was measured by the rate of 7-AMC production by fluorescence. Percent change in rate with NU-9 was quantified in the graph. […] B) Mature hippocampal neurons were treated with NU-9 for 30 minutes, then Magic Red was used to monitor intracellular cathepsin L activity. Cells were treated in 3 wells.
# Chain of cathepsin L (P07711 114-333, species assumed): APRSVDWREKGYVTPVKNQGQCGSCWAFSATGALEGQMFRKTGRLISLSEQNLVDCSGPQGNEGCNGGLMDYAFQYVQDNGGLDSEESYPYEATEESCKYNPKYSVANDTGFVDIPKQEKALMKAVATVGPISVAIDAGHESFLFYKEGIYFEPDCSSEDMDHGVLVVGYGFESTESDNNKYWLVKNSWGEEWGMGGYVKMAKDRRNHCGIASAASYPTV
compound,measurement,setting,value
O=C[C@H](Cc1ccc(O)cc1)NC(=O)[C@H](Cc1ccccc1)NC(=O)OCc1ccccc1 [Z-FY-CHO] (Cbz-Phe-Tyr-aldehyde),"cathepsin L activity, standard inhibitor",cathepsin L,reduced cathepsin L activity
same,AβO accumulation under cathepsin L inhibition,AβOs bound to neurons,mimicked the effect of NU-9
same,AβO accumulation under cathepsin L inhibition,AβOs bound to neurons; listed as Cathepsin L inhibitor,prevents AβO accumulation
Ic1cccc(/C=N/Nc2nc(N3CCOCC3)nc(N(c3ccccc3)c3ccccc3)n2)c1 [vacuolin-1],influence of inhibition of lysosome maturation and exocytosis on NU-9,"AβOs bound to neurons; 1 μM vacuolin-1 1 h pre-treatment, 3 μM NU-9 30 min, 500 nM Aβ42",prevented the effectiveness of NU-9
MDL-28170,AβO accumulation under calpain inhibition,"AβOs bound to neurons; 10 μM MDL-28170 30 min, 500 nM Aβ42 30 min",reducing AβO accumulation; also recorded: may mimic the effect of NU-9
CC(C)C[C@@H](C=O)NC(=O)[C@H](CC(C)C)NC(=O)[C@H](CC(C)C)NC(=O)OCc1ccccc1 [MG132] (Cbz-Leu-Leu-Leu-aldehyde),formation of AβOs under proteasome inhibition,"AβOs bound to neurons; 100 nM MG132 30-min pre-treatment, 500 nM Aβ42",no effect on formation of AβOs
same,influence of proteasome inhibition on reduction of AβO accumulation by NU-9,"AβOs bound to neurons; 100 nM MG132 30 min, 3 μM NU-9 30 min, 500 nM Aβ42",no effect on formation of AβOs or reduction of AβO accumulation by NU-9
CO/C1=C\C(C)=C\[C@@H](C)[C@@H](O)[C@@H](C)C/C(C)=C/C=C/[C@H](OC)[C@@H]([C@@H](C)[C@@H](O)[C@H](C)[C@@]2(O)C[C@@H](O)[C@H](C)[C@@H](C(C)C)O2)OC1=O [Bafilomycin A],"integrated fluorescent density of lysotracker, control",acidic lysosomes,significantly reduced
same,neuron-binding AβOs with lysosome inhibitor in the absence of NU-9,"AβOs bound to neurons; 100 nM bafilomycin A 30 min, Aβ monomer 500 nM 30 min, vs Aβ monomer alone",did not lead to the formation of significantly more neuron-binding AβOs
same,influence of lysosome acidification inhibitor on the effect of NU-9,AβOs bound to neurons,prevents the effect of NU-9 on AβOs bound to synapses; also recorded: significantly prevented the effect of NU-9
same,influence of lysosome acidification inhibitor on the effect of NU-9,AβOs bound to neurons; listed as Bafilomyicin A,prevented the effect of NU-9
CCCNC(=O)[C@H]1O[C@@H]1C(=O)N[C@H](C(=O)N1CCC[C@H]1C(=O)O)[C@@H](C)CC [CA-074],"cathepsin B activity, standard inhibitor",cathepsin B,Clear inhibition of enzyme activity
same,influence of cathepsin B inhibitor on the effect of NU-9,"AβOs bound to neurons; 10 μM CA-074 24 h, 3 μM NU-9 30 min, 500 nM Aβ monomer 30 min",prevented the effect of NU-9
CC(C)C[C@H](NC(=O)[C@H]1O[C@@H]1C(=O)O)C(=O)NCCCCN=C(N)N [E64],"number of bound AβOs, inhibitor alone","AβOs bound to neurons; E64 10 μM, 24 h, Aβ monomer 500 nM 30 min",significantly reduced the number of bound AβOs
same,influence of cysteine cathepsin inhibitor on the effect of NU-9,"AβOs bound to neurons; E64 10 μM, 24 h, then NU-9 3 μM 30 min, Aβ monomer 500 nM 30 min",did not significantly change the effectiveness of NU-9; also recorded: does not prevent the effect of NU-9
